Where two headings read alike, the source gives them in different places.
How the values were obtained:
[1] = system: hyperactivity induced by amphetamine; experiment: Amphetamine induced hyperactivity mouse model; type: in vivo; conditions: mice, salts of the compounds
Protocol: (§1) Five of the compounds listed in Table 2 were tested in an in vivo assay predictive of antipsychotic activity. Salts of these compounds where administered to mice having hyperactivity induced by amphetamine or MK-801 administration. The compounds were administered both subcutaneously (sc) and orally (po).

[2] = system: hyperactivity induced by MK-801; experiment: MK-801 induced hyperactivity mouse model; type: in vivo; conditions: mice, salts of the compounds
Protocol: as §1

novel object recognition = experiment: Novel object recognition (NOR) assay; type: in vivo; conditions: mice, dose approx. ID75 in MK-801 hyperactivity assay
Protocol: Salts of the compounds were administered to mice at one hour post-training (a time-point at which animals normally behaviorally discriminate between novel and familiar objects) and two hours post-training (a time-point at which these animals normally no longer discriminate between objects). Doses were selected to correspond to the approximate ID75 value in the MK-801 hyperactivity assay.

muscarinic M2 receptor = target: T1, muscarinic M2 receptor (Homo sapiens, UniProt P08172); experiment: R-SAT functional screen, M2; type: cell-based; conditions: for Emax: read-out: M2 eff (efficacy)
T1 construct: expressed in transfected cells
T1 sequence (P08172 1-466): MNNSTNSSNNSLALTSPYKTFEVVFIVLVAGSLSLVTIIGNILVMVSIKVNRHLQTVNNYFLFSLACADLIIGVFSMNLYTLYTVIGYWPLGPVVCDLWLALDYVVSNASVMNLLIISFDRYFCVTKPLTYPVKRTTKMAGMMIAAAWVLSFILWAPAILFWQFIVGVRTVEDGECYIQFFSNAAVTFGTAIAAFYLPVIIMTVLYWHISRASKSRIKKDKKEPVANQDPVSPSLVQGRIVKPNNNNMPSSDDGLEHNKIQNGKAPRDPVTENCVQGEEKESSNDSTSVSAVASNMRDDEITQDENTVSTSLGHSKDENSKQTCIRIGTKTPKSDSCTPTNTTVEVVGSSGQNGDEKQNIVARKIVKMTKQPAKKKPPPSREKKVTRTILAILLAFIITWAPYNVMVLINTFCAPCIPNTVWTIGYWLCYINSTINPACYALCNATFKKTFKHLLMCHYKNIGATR
Summary of the method: (§2)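 Receptor Selection and Amplification Technology (R-SAT) functional cell assay at M1, M2, M3 receptors. Values reported as efficacy (eff) and potency as pEC50.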

muscarinic M3 receptor = target: T2, muscarinic M3 receptor (Homo sapiens, UniProt P20309); experiment: R-SAT functional screen, M3; type: cell-based
T2 construct: expressed in transfected cells
T2 sequence (P20309 whole entry): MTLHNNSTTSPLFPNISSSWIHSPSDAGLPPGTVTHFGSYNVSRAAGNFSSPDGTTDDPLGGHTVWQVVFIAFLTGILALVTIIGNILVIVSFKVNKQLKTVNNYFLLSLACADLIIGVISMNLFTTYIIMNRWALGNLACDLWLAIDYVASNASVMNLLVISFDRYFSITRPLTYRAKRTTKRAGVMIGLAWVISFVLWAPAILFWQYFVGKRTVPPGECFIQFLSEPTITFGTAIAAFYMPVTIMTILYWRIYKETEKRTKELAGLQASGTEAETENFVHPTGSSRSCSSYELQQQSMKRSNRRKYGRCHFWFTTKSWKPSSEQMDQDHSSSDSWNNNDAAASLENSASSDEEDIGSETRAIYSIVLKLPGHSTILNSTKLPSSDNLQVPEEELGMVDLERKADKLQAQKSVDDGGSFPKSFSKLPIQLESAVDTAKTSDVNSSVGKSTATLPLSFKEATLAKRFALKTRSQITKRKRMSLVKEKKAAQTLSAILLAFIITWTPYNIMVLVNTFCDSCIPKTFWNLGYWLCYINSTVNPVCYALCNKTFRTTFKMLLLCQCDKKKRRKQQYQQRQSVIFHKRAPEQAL
Excerpt: The term “modulate” refers to the ability of a compound disclosed herein to alter the function of a muscarinic receptor. A modulator may activate the activity of a muscarinic receptor, may activate or inhibit the activity of a muscarinic receptor depending on the concentration of the compound exposed to the muscarinic receptor, or may inhibit the activity of a muscarinic receptor. The term “modulate” also refers to altering the function of a muscarinic receptor by increasing or decreasing the probability that a complex forms between a muscarinic receptor and a natural binding partner. A modulator may increase the probability that such a complex forms between the muscarinic receptor and the natural binding partner, may increase or decrease the probability that a complex forms between the muscarinic receptor and the natural binding partner depending on the concentration of the compound exposed to the muscarinic receptor, and or may decrease the probability that a complex forms between the muscarinic receptor and the natural binding partner. In some embodiments, modulation of the muscarinic receptor may be assessed using Receptor Selection and Amplification Technology (R-SAT) as described in U.S. Pat. No. 5,707,798, the disclosure of which is incorporated herein by reference in its entirety.
Several compounds disclosed herein were evaluated for activity at muscarinic receptors using Receptor Selection and Amplification Technology (R-SAT) as described in U.S. Pat. No. 5,707,798, the disclosure of which is incorporated herein by reference in its entirety. The efficacy (eff) and potency (expressed as pEC50) of these compounds are presented in Table 1 at M1, M2, and M3 receptors.

muscarinic M1 receptor = target: T3, muscarinic M1 receptor (Homo sapiens, UniProt P11229); experiment: R-SAT functional screen, M1; type: cell-based; conditions: for Emax: read-out: M1 eff (efficacy); for EC50: read-out: M1 pEC50 (converted)
T3 construct: expressed in transfected cells
T3 sequence (P11229 1-460): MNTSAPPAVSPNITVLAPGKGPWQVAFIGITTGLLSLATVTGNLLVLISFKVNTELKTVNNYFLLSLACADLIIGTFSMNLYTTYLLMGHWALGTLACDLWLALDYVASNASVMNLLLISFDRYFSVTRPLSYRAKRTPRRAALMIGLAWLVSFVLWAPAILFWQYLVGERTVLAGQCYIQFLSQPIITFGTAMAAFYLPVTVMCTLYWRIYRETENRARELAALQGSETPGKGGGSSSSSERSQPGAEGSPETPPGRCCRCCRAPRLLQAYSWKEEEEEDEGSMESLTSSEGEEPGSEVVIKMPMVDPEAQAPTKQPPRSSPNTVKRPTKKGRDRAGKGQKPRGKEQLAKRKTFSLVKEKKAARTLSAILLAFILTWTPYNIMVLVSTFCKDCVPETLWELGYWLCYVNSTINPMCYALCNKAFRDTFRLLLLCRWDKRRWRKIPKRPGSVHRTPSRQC
Summary of the method: as §2

[3] = R-SAT, read-out: M2 pEC50 (converted)

SMILES	Emax (muscarinic M2 receptor; R-SAT) [%]	EC50 (muscarinic M2 receptor; [3]) [nM]	M3 eff (efficacy) (muscarinic M3 receptor)	Emax (muscarinic M1 receptor; R-SAT) [%]	EC50 (muscarinic M1 receptor; R-SAT) [nM]	also measured
CN1CCN(C2=Nc3cc(Cl)ccc3Nc3ccccc32)CC1 [Clozapine, clozapine, reference compound]	–	–	–	–	–	Amphetamine model (ID50 mg/kg po) ([1]; po): 10 mg/kg; Amphetamine model (ID50 mg/kg sc) ([1]; sc): 1.4 mg/kg; MK-801 model (ID50 mg/kg po) ([2]; po): 0.6 mg/kg; MK-801 model (ID50 mg/kg sc) ([2]; sc): 0.5 mg/kg; NOR - 60 minutes post training (novel object recognition): not retained; NOR - 120 minutes post training (novel object recognition): not retained; NOR - 60 minutes post training (novel object recognition; listed as clozapine): abolished novel object recognition; NOR - 120 minutes post training (novel object recognition; listed as clozapine): cognitive impairing effects
Clc1cccc2c1C(N1CCNCC1)=Nc1cc(Br)ccc1N2 [8-Bromo-1-chloro-11-(piperazin-1-yl)-5H-dibenzo[b,e][1,4]diazepine]	105	2510	4	66	126	–
CC1CN(C2=Nc3cc(Cl)ccc3Nc3ccccc32)CCN1 (centres unmarked) [8-Chloro-11-(3-methyl-piperazin-1-yl)-5H-dibenzo[b,e][1,4]diazepine]	159	1580	19	28	100	–
Clc1ccc2c(c1)N=C(N1CCNCC1)c1cccc(Cl)c1N2 [4,8-Dichloro-11-(piperazin-1-yl)-5H-dibenzo[b,e][1,4]diazepine]	118	1000	44	78	63.1	EC50 (muscarinic M3 receptor; read-out: M3 pEC50 (converted)): 158 nM
Brc1ccc2c(c1)N=C(N1CCNCC1)c1ccccc1N2 [8-Bromo-11-(piperazin-1-yl)-5H-dibenzo[b,e][1,4]diazepine]	121	501	13	63	63.1	–
Cc1cccc2c1Nc1ccc(Cl)cc1N=C2N1CCNCC1 [8-Chloro-4-methyl-11-(piperazin-1-yl)-5H-dibenzo[b,e][1,4]diazepine]	162	1000	16	92	63.1	–
Fc1ccc2c(c1)C(N1CCNCC1)=Nc1cc(Cl)ccc1N2 [8-Chloro-2-fluoro-11-(piperazin-1-yl)-5H-dibenzo[b,e][1,4]diazepine]	121	3160	–	32	158	–
c1ccc2c(c1)Sc1cc3c(cc1N=C2N1CCNCC1)OCCO3 [11-(piperazin-1-yl)-2,3-dihydro-1,4-benzodioxino[6,7-b][1,4]benzothiazepin]	28	–	–	6	–	–
Ic1ccc2c(c1)N=C(N1CCNCC1)c1ccccc1N2 [8-Iodo-11-(piperazin-1-yl)-5H-dibenzo[b,e][1,4]diazepine]	187	1000	–	75	63.1	–
CN1CCCN(C2=Nc3cc(Cl)ccc3Nc3ccccc32)CC1 [8-Chloro-11-(4-methyl-[1,4]diazepam-1-yl)-5H-dibenzo[b,e][1,4]diazepine]	–	–	–	–	–	EC50 (muscarinic M2 receptor): 1260 nM; Emax (muscarinic M2 receptor): 50%; Emax (muscarinic M1 receptor): 18%
Clc1ccc2c(c1)C=C(N1CCNCC1)c1ccccc1N2 [2-Chloro-10-piperazin-1-yl-5H-dibenzo[b,f]azepin]	3	–	–	2	–	–
NC1CCN(C2=Nc3cc(Cl)ccc3Nc3ccccc32)CC1 [1-(8-Chloro-5H-dibenzo[b,e][1,4]diazepin-11-yl)-piperidine-4-yl-amine]	95	2510	–	6	–	–
C[C@@H]1CN(C2=Nc3cc(Cl)ccc3Nc3ccccc32)[C@@H](C)CN1 (relative stereo) [8-Chloro-11-(trans-2,5-dimethyl-piperazin-1-yl)-5H-dibenzo[b,e][1,4]diazepine]	24	–	–	8	–	–
Cc1ccc2c(c1)C(N1CCNCC1)=Nc1ccccc1N2 [2-Methyl-11-(piperazin-1-yl)-5H-dibenzo[b,e][1,4]diazepine]	9	–	–	1	–	–
c1ccc2c(c1)N=C(N1CCNCC1)c1ccccc1S2 [11-(piperazin-1-yl)-dibenzo[b,f][1,4]thiazepin]	41	316	–	4	–	–

Source: patent publication US20090239840A1, “AMINO SUBSTITUTED DIARYL[a,d]CYCLOHEPTENE ANALOGS AS [sequence] AGONISTS AND METHODS OF TREATMENT OF NEUROPSYCHIATRIC DISORDERS” (ACADIA PHARMACEUTICALS, INC., priority 2003, published 2009)
